# Experiments:
# AAD-12 (v2) [1] = target: T1, AAD-12 (v2) (Delftia acidovorans, UniProt P83309); experiment: Colorimetric phenol detection assay of AAD-12 activity; type: biochemical; conditions: for activity of AAD-12 (v2) on substrate (absorbance at 510 nm, FIG. 3): 4.4 μg AAD-12 (v2), 5 minutes
# T1 construct: made in house; host or cells: Pseudomonas fluorescens strain MB324 (construct pDAB739)
# Method: Enzyme activity was measured by colorimetric detection of the product phenol using a protocol modified from that of Fukumori and Hausinger (1993) (J. Biol. Chem. 268: 24311-24317) to enable deployment in a 96-well microplate format. The colorimetric assay has been described for use in measuring the activity of dioxygenases cleaving 2,4-D and dichlorprop to release the product 2,4-dichlorophenol. The color yield from several phenols was compared to that of 2,4-dichlorophenol using the detection method previously described to ascertain which phenol products could be readily detected. […] Pyridinols derived from fluroxypyr and triclopyr produced no significant color. The color yield of 2,4-dichlorophenol was linear and proportional to the concentration of phenol in the assay up to ˜500 μM.
# Assays were initiated by addition of the aryloxyalkanoate substrate, enzyme or α-ketoglutarate at time zero. After 5 minutes of incubation at 25° C., the reaction was terminated by addition of 30 μl of a 1:1:1 mix of 50 mM Na EDTA; pH 10 buffer (3.09 g boric acid+3.73 g KCl+44 ml 1 N KOH) and 0.2% 4-aminoantipyrine. Then 10 μl 0.8% potassium ferricyanide was added and after 5 or 10 min, the absorbance at 510 nm was recorded in a spectrophotometric microplate reader. Blanks contained all reagents except for enzyme to account for the occasional slight contamination of some of the substrates by small amounts of phenols.
# The results are shown in FIG. 3, which illustrates activity of AAD-12 (v2) on 2,4-D and enantiomers of dichlorprop. 4.4 μg AAD-12 (v2) was incubated with 0.5 mM substrate (1 mM for (R,S)-dichlorprop) and the reaction initiated by addition of α-ketoglutarate. After 5 minutes, the reaction was quenched, and the absorbance at 510 nm determined after addition of colorimetric detection reagents. The background value without enzyme was subtracted.
# [2] = test system: Segregating T2 AAD-12 (v1) plants (pDAB724.01.1.20); experiment: Foliar-applied auxinic herbicides on T2 Arabidopsis; type: in vivo, Arabidopsis thaliana; conditions: Inactive DCP metabolite
# Method: (§1) The ability of AAD-12 (v1) to provide resistance to other aryloxyalkanoate auxin herbicides in transgenic Arabidopsis was determined by foliar application of various substrates. T2 generation Arabidopsis seed was stratified, and sown into selection trays much like that of Arabidopsis (Example 6.4). A transformed-control line containing PAT and the insect resistance gene Cry1F was planted in a similar manner. Seedlings were transferred to individual 3-inch pots in the greenhouse. All plants were sprayed with the use of a track sprayer set at 187 L/ha. The plants were sprayed with a range of pyridyloxyacetate herbicides: 280-2240 g ae/ha triclopyr (Garlon 3A, Dow AgroSciences) and 280-2240 g ae/ha fluroxypyr (Starane, Dow AgroSciences); and the 2,4-D metabolite resulting from AAD-12 activity, 2,4-dichlorophenol (DCP, Sigma) (at a molar equivalent to 280-2240 g ac/ha of 2,4-D, technical grade DCP was used). All applications were formulated in water. Each treatment was replicated 3-4 times. Plants were evaluated at 3 and 14 days after treatment.
# [3] = test system: Pat/Cry1f-Control Arabidopsis; experiment: Foliar-applied auxinic herbicides on transformed control Arabidopsis; type: in vivo, Arabidopsis thaliana; conditions: for Ave % Injury 14DAT: Inactive DCP metabolite
# Method: as §1
# AAD-12 (v2) [4] = target: T1, AAD-12 (v2); experiment: Chloropyridinol detection assay (absorbance at 325 nm); type: biochemical; conditions: 6.8 μg AAD-12 (v2), 1 mM substrate
# Text: AAD-12 action on potential substrates such as the herbicide triclopyr containing a substituted pyridine (rather than benzene rings) will release a pyridinol on cleavage of the aryloxyalkanoate bond. Pyridinols were not detected using the aminoantipyrine/ferricyanide phenol detection described in the preceding section. […] This was used to create a continuous microplate-based spectrophotometric assay.
# All five pyridyloxyalkanoates were cleaved to release pyridinols by AAD-12 (v2). The rates for the oxypropionate substrates 116844 and 91767 were somewhat faster than those for the corresponding acetates (triclopyr and 93833 respectively) indicating a preference of AAD-12 (v2) for oxypropionate over oxyacetate side chains.
# [5] = 280 g ae/ha (molar equivalent of 2,4-D) foliar
# [6] = 560 g ae/ha (molar equivalent of 2,4-D) foliar
# [7] = 1120 g ae/ha (molar equivalent of 2,4-D) foliar
# [8] = 2240 g ae/ha (molar equivalent of 2,4-D) foliar
# T1 sequence (P83309 whole entry, looked up, natural form): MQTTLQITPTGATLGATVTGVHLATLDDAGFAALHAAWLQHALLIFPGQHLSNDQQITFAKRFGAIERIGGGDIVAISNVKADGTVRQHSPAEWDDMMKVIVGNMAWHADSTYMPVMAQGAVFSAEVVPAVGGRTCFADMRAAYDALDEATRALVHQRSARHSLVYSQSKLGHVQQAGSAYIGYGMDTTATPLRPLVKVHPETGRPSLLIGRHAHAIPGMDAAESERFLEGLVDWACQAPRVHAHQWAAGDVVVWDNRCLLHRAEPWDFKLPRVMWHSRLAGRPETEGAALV
smiles,measurement,setting,value
"CC(Oc1ccc(Cl)cc1Cl)C(=O)O (racemic) [(R,S)-dichlorprop]","activity of AAD-12 (v2) on substrate (absorbance at 510 nm, FIG. 3)",AAD-12 (v2) [1]; 1 mM substrate,excellent activity
same,Substrate inhibition at 2 mM,AAD-12 (v2) [1]; Phenol detection,55%
same,"kcat, min^−1 (±SE)",AAD-12 (v2) [1]; Phenol detection,63.4 (±0.5) min^−1
same,Km,"AAD-12 (v2) [1]; Phenol detection, for (R,S)-dichlorprop calculated assuming 50% of the racemic mixture was available as a substrate, read-out: Km, μM (±SE)",122 µM
"Oc1ccc(Cl)cc1Cl [2,4-DCP, 2,4-dichlorophenol]",Ave % Injury 14DAT,[2]; [5],0%
same,Ave % Injury 14DAT,[2]; [6],0%
same,Ave % Injury 14DAT,[2]; [7],0%
same,Ave % Injury 14DAT,[2]; [8],0%
same,Ave % Injury 14DAT,[3]; [5],0%
same,Ave % Injury 14DAT,[3]; [6],0%
same,Ave % Injury 14DAT,[3]; [7],0%
same,Ave % Injury 14DAT,[3]; [8],0%
same,effect on plants after foliar application,"[3]; molar equivalent to 280-2240 g ae/ha of 2,4-D",no effect
C[C@H](Oc1ccc(Cl)cc1Cl)C(=O)O [(S)-dichlorprop],"activity of AAD-12 (v2) on substrate (absorbance at 510 nm, FIG. 3)",AAD-12 (v2) [1]; 0.5 mM substrate,excellent activity
CC(Oc1ncc(Cl)cc1Cl)C(=O)O (stereo not shown) [compound 66357],Rate relative to triclopyr,AAD-12 (v2) [4],2.3
same,Rate (mAU/min),"AAD-12 (v2) [4]; 325 nm, background rate 1.4 mAU/min subtracted",225 mAU/min
